Test results from patent publication US9242929B2, “Compounds as diacylglycerol acyltransferase inhibitors” (GlaxoSmithKline Intellectual Property (No.2) Limited, priority 2011, dated 2016).

What follows are compounds tested against T1, Human DGAT1 (Homo sapiens, UniProt O75907) (assay: human DGAT1 fluorescence (CPM) assay, inhibition of CoA product formation). Conditions: human DGAT1 fluorescene (CPM) assay; microsomes from Sf9 insect cells; read-out: hDGAT IC50.
T1 construct: made in house; host or cells: Sf9 insect cells (baculovirus), microsomes
T1 sequence (O75907 1-488): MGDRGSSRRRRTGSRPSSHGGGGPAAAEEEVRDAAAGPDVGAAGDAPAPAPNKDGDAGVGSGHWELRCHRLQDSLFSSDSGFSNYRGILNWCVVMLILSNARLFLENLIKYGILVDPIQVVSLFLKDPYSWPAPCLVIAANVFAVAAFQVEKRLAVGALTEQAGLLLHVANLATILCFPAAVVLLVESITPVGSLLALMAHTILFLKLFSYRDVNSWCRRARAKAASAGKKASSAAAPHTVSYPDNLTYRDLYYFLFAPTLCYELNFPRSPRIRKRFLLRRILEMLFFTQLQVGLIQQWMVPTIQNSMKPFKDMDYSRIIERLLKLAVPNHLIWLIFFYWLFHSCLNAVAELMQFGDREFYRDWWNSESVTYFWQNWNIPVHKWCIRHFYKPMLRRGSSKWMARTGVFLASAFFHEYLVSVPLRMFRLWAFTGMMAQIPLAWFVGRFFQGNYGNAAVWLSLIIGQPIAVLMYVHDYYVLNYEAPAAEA
Assay type: biochemical
Description: Human DGAT1 was expressed in Sf9 insect cells using a baculovirus expression system. Microsomes were prepared and used as enzyme for in vitro inhibition testing in either of two formats measuring production of coenzyme A or tridecanoylglycerol product, respectively. All steps were performed at 21-23° C. All data for DGAT1 inhibition by test compounds were collected under conditions where product formation was linear with reaction time.
An equal volume (10 uL) of 3× enzyme in buffer was added and the components incubated for 30 minutes pre-reaction incubation to allow enzyme and test compounds to attain binding equilibrium. […] Some assays were performed with inclusion of didecanoylglycerol in the pre-reaction incubation of test compound and enzyme. DGAT reactions (30 uL) were initiated upon addition of 10 uL of 3× substrate solution. Final reaction conditions consisted of 20 mM HEPES pH 7.5, 2 mM MgCl2, 1 mM CHAPS, 50 uM didecanoylglycerol, 3 uM decanoyl-CoA, 1 ug/mL microsomal protein, and 1% DMSO. Following a 60 minute reaction incubation, reactions were stopped and CoA product derivatized with 30 uL of buffer containing 10 uM {4-[4-(4-amino-7,7-dimethyl-7H-pyrimido[4,5-b][1,4]oxazin-6-yl)phenyl]cyclohexyl}acetic acid and 50 uM 7-diethylamino-3-(4′-maleimidylphenyl)-4-methylcoumarin (CPM). […] IC50s were fitted using GraphPad Prism to a sigmoidal dose response.

Row | SMILES | IC50 [nM]
1 | COC1(CC(=O)O)CCc2cc(-c3ccc(NC(=O)Nc4ccccc4)cc3)ccc2C1=O (stereo not shown) [Example 190, 2-(2-methoxy-1-oxo-6-{4-[(phenylcarbamoyl)amino]phenyl}-1,2,3,4-tetrahydronaphthalen-2-yl)acetic acid] | 67.6
2 | O=C(O)CC1(O)CCc2cc(-c3ccc(NC(=O)Nc4cccc(C(F)(F)F)c4)cc3)ccc2C1=O (stereo not shown) [Example 185, 2-{2-hydroxy-1-oxo-6-[4-({[3-(trifluoromethyl)phenyl]carbamoyl}amino)phenyl]-1,2,3,4-tetrahydronaphthalen-2-yl}acetic acid] | 32
3 | CCC1(CC(=O)O)CCc2cc(-c3cnc(NC(=O)Nc4ccccc4)cn3)ccc2C1=O (stereo not shown) [Example 154] | 47.8
4 | O=C(O)CC1CCc2cc(-c3ccc(NC(=O)Nc4ccc(F)c(C(F)(F)F)c4)cc3)ccc2C1 (stereo not shown) [Example 20] | 586
5 | CCC1(CC(=O)O)Cc2cc(-c3ccc(NC(=O)Nc4cccc(C(F)(F)F)c4)cc3)ccc2C1=O (stereo not shown) [Example 42, 2-{2-ethyl-1-oxo-5-[4-({[3-(trifluoromethyl)phenyl]carbamoyl}amino)phenyl]-2,3-dihydro-1H-inden-2-yl}acetic acid] | 60
6 | O=C(O)CN1CCc2cc(-c3ccc(NC(=O)Nc4cccc(C(F)(F)F)c4)cc3)ccc2C1=O [Example 1, 2-{1-oxo-6-[4-({[3-(trifluoromethyl)phenyl]carbamoyl}amino)phenyl]-1,2,3,4-tetrahydroisoquinolin-2-yl}acetic acid] | 1880
7 | CC(C)(C(=O)O)C1CCc2cc(-c3ccc(NC(=O)Nc4cccc(C(F)(F)F)c4)cc3)ccc2C1=O (stereo not shown) [Example 76, 2-methyl-2-{1-oxo-6-[4-({[3-(trifluoromethyl)phenyl]carbamoyl}amino)phenyl]-1,2,3,4-tetrahydronaphthalen-2-yl}propanoic acid] | 112
8 | O=C(O)CCC1CCc2cc(-c3ccc(NC(=O)Nc4cccc(C(F)(F)F)c4)cc3)ccc2C1=O (stereo not shown) [Example 69, 3-{1-oxo-6-[4-({[3-(trifluoromethyl)phenyl]carbamoyl}amino)phenyl]-1,2,3,4-tetrahydronaphthalen-2-yl}propanoic acid] | 114
9 | O=C(O)CC1(F)CCc2cc(-c3ccc(NC(=O)Nc4cccc(C(F)(F)F)c4)cc3)ccc2C1=O (stereo not shown) [Example 182, 2-{2-fluoro-1-oxo-6-[4-({[3-(trifluoromethyl)phenyl]carbamoyl}amino)phenyl]-1,2,3,4-tetrahydronaphthalen-2-yl}acetic acid] | 48
10 | CCC(CC)NC(=O)Nc1cnc(-c2ccc3c(c2)CCC(CC(=O)O)(CC(F)(F)F)C3=O)cn1 (stereo not shown) [Example 219] | 5960
11 | CC1(CC(=O)O)CCc2cc(-c3ccc(NC(=O)Nc4cccc(Cl)c4)cc3Cl)ccc2C1=O (single isomer, unassigned) [Example 212, 2-(6-(2-chloro-4-(3-(3-chlorophenyl)ureido)phenyl)-2-methyl-1-oxo-1,2,3,4-tetrahydronaphthalen-2-yl)acetic acid] | 32.8
12 | O=C(O)CC1(CO)CCc2cc(-c3ccc(NC(=O)Nc4cccc(Cl)c4)c(F)c3)ccc2C1=O (stereo not shown) [Example 198, 2-(6-(4-(3-(3-Chlorophenyl)ureido)-3-fluorophenyl)-2-(hydroxymethyl)-1-oxo-1,2,3,4-tetrahydronaphthalen-2-yl)acetic acid] | 55
13 | O=C(O)CC1CCc2cc(-c3ccc(NC(=O)Nc4cccc(C(F)(F)F)c4)cc3)ccc2C1=O (stereo not shown) [Example 47, 2-{1-oxo-6-[4-({[3-(trifluoromethyl)phenyl]carbamoyl}amino)phenyl]-1,2,3,4-tetrahydronaphthalen-2-yl}acetic acid] | 181
14 | O=C(O)CC1CCc2cc(-c3ccc(NC(=O)Nc4cccc(C(F)(F)F)c4)cc3)ccc2C1O (stereo not shown) [Example 68, 2-{1-hydroxy-6-[4-({[3-(trifluoromethyl)phenyl]carbamoyl}amino)phenyl]-1,2,3,4-tetrahydronaphthalen-2-yl}acetic acid] | 503
15 | O=C(O)CC1(O)CCc2cc(-c3ccc(NC(=O)Nc4cccc(C(F)(F)F)c4)cc3)ccc2C1 (stereo not shown) [Example 40, 2-{2-hydroxy-6-[4-({[3-(trifluoromethyl)phenyl]carbamoyl}amino)phenyl]-1,2,3,4-tetrahydronaphthalen-2-yl}acetic acid] | 357

More lines, in order of falling IC50, values ahead:

Row | IC50 [nM] | SMILES
16 | 31.8 | CCC1(CC(=O)O)CCc2cc(-c3ccc(NC(=O)Nc4ccccc4)cc3Cl)ccc2C1=O (stereo not shown) [Example 140]
17 | 27.5 | O=C(O)CC1(CC(F)(F)F)CCc2cc(-c3cnc(NC(=O)NC4CCC4)cn3)ccc2C1=O (stereo not shown) [Example 230]
18 | 14.2 | CC1(CC(=O)O)CCc2cc(-c3ccc(NC(=O)Nc4cccc(C(F)(F)F)c4)cn3)ccc2C1=O (stereo not shown) [Example 109]
19 | 12 | CC1(CC(=O)O)CCc2cc(-c3ccc(NC(=O)Nc4cccc(Cl)c4)c(F)c3)ccc2C1=O (stereo not shown) [Example 90]
20 | 11.2 | CCC1(CC(=O)O)CCc2cc(-c3ccc(NC(=O)Nc4cccc(C(F)(F)F)c4)c(F)c3)ccc2C1=O (stereo not shown) [Example 143]
21 | 10.8 | CC[C@@]1(CC(=O)O)CCc2cc(-c3ccc(NC(=O)Nc4cccc(C(F)(F)F)c4)cc3)ccc2[C@@H]1O (relative stereo) [Example 173, rel-2-[(1R,2S)-2-ethyl-1-hydroxy-6-[4-({[3-(trifluoromethyl)phenyl]carbamoyl}amino)phenyl]-1,2,3,4-tetrahydronaphthalen-2-yl]acetic acid]
22 | 10.6 | COC1(CC(=O)O)CCc2cc(-c3ccc(NC(=O)Nc4cccc(Cl)c4)cc3)ccc2C1=O (stereo not shown) [Example 192]
23 | 9.4 | CCC1(CC(=O)O)CCc2cc(-c3ccc(NC(=O)Nc4ccccc4)c(F)c3)ccc2C1=O (stereo not shown) [Example 141]
24 | 6.9 | COC1(CC(=O)O)CCc2cc(-c3ccc(NC(=O)Nc4cccc(C(F)(F)F)c4)cc3)ccc2C1=O (single isomer, unassigned) [Example 228]
25 | 6.5 | O=C(O)CC1(CC(F)(F)F)CCc2cc(-c3ccc(NC(=O)Nc4ccccc4)cc3)ccc2C1O (stereo not shown) [Example 202]
26 | 6.1 | O=C(O)CC1(CC(F)(F)F)CCc2cc(-c3ccc(NC(=O)NC4CCCCC4)cc3)ccc2C1=O (stereo not shown) [Example 226]
27 | 5.9 | CCC1(CC(=O)O)CCc2cc(-c3ccc(NC(=O)Nc4cccc(Cl)c4)cc3Cl)ccc2C1=O (single isomer, unassigned) [Example 213, 2-(6-(2-Chloro-4-(3-(3-chlorophenyl)ureido)phenyl)-2-ethyl-1-oxo-1,2,3,4-tetrahydronaphthalen-2-yl)acetic acid]
28 | 5.8 | CCC1(CC(=O)O)CCc2cc(-c3ccc(NC(=O)Nc4cccc(Cl)c4)c(F)c3)ccc2C1=O (stereo not shown) [Example 144]
29 | 5.2 | COC1(CC(=O)O)CCc2cc(-c3ccc(NC(=O)Nc4cccc(Cl)c4)cc3)ccc2C1=O (stereo not shown) [Example 229]
30 | 4.5 | CC[C@@]1(CC(=O)O)CCc2cc(-c3ccc(NC(=O)Nc4cccc(Cl)c4)cn3)ccc2C1=O [Example 164]
31 | 3.5 | O=C(O)CC1(CC(F)(F)F)CCc2cc(-c3ccc(NC(=O)Nc4cccc(Cl)c4)cc3)ccc2C1=O (stereo not shown) [Example 205]
32 | 2.7 | O=C(O)CC1(CC(F)(F)F)CCc2cc(-c3cnc(NC(=O)NC4CCCCC4)cn3)ccc2C1=O (single isomer, unassigned) [Example 216, 2-(6-(5-(3-cyclohexylureido)pyrazin-2-yl)-1-oxo-2-(2,2,2-trifluoroethyl)-1,2,3,4-tetrahydronaphthalen-2-yl)acetic acid]
33 | 1.8 | O=C(O)CC1(CC(F)(F)F)CCc2cc(-c3cnc(NC(=O)Nc4ccc(F)c(F)c4)cn3)ccc2C1=O (stereo not shown) [Example 215, 2-(6-(5-(3-(3,4-Difluorophenyl)ureido)pyrazin-2-yl)-1-oxo-2-(2,2,2-trifluoroethyl)-1,2,3,4-tetrahydronaphthalen-2-yl)acetic acid]
34 | 1.2 | CCc1ccc(NC(=O)Nc2ccc(-c3ccc4c(c3)CCC(CC(=O)O)(CC(F)(F)F)C4=O)cc2)cc1 (stereo not shown) [Example 225]
35 | 0.7 | O=C(O)CC1(CC(F)(F)F)CCc2cc(-c3cnc(NC(=O)Nc4cccc(Cl)c4)cn3)ccc2C1=O (stereo not shown) [Example 223]
36 | 0.6 | O=C(O)CC1(CC(F)(F)F)CCc2cc(-c3ccc(NC(=O)Nc4cccc(Cl)c4)cc3)ccc2C1=O (single isomer, unassigned) [Example 214, 2-(6-(4-(3-(3-Chlorophenyl)ureido)phenyl)-1-oxo-2-(2,2,2-trifluoroethyl)-1,2,3,4-tetrahydronaphthalen-2-yl)acetic acid]
37 | 0.3 | CCc1ccc(NC(=O)Nc2cnc(-c3ccc4c(c3)CCC(CC(=O)O)(CC(F)(F)F)C4=O)cn2)cc1 (stereo not shown) [Example 220]
